Our source for the ED50 values is patent US4328359A, “15-Deoxy-16-substituted-19-chloro-20-nor-prostane derivatives of the E and F series” (American Cyanamid Company, priority 1981, dated 1982).

Holding throughout (format): in vivo
In assay [1] the test system is bronchospasms elicited by intravenous injections of histamine. Description: Konzett procedure: bronchodilator activity in Guinea-Pigs, histamine-induced bronchospasm. To be noted: Cavia porcellus, spasmogen histamine, three logarithmic cumulative intravenous doses. The procedure: (§1) The bronchodilator activity for representative compounds of this invention was determined in Guinea-Pigs against bronchospasms elicited by intravenous injections of serotonin, histamine, and acetylcholine, by the Konzett procedure, the details of which are those discussed by J. Lulling, P. Lievens, F. El Sayed and J. Prignot, Arzeimittel-Forschung 18, 995 (1968).
(§2) In the table which follows, bronchodilator activity for representative compounds of the invention against spasmogenic agents serotonin, histamine, and acetylcholine is expressed as an ED50 determined from the results obtained with three logarithmic cumulative intravenous doses.

Assay [2] has as its system bronchospasms elicited by intravenous injections of serotonin. As to the kind of experiment: Konzett procedure: bronchodilator activity in Guinea-Pigs, serotonin-induced bronchospasm. The conditions noted are these: Cavia porcellus, spasmogen serotonin, three logarithmic cumulative intravenous doses. The procedure:
as §1, §2

Assay [3] relates to bronchospasms elicited by intravenous injections of acetylcholine. As to the kind of experiment: Konzett procedure: bronchodilator activity in Guinea-Pigs, acetylcholine-induced bronchospasm. To be noted: Cavia porcellus, spasmogen acetylcholine, three logarithmic cumulative intravenous doses. Here is the method:
as §1, §2

As usually defined, the ED50 is the midpoint of the dose-response relation. A higher ED50 goes with a need for a large dose. As to `O=C(O)CCC/C=C\C[C@H]1C(=O)C[C@@H](O)[C@@H]1/C=C/CC(O)CCCCl` (relative stereo) [dl 11α,16-dehydroxy-9-oxo-19-chloro-20-nor-5-cis,13-trans prostadienoic acid], the values for the ED50 in assay [1], in assay [2] and in assay [3] were 4.4 µg/kg, 4.65 µg/kg and 6.8 µg/kg, respectively.
